# According to US11564920B2, “5-heteroaryl-1H-pyrazol-3-amine derivative” (Sumitomo Pharma Co., Ltd., priority 2020, dated 2023):
# Like-named read-outs stand apart in the source and are kept apart here.
# Experiments:
# [1] = system: Human bone marrow CD34 positive hematopoietic stem cells; assay: Human bone marrow cell colony formation test (hemotoxicological evaluation test); assay type: cell-based; conditions: 100 nM; for Colony count (/well), mean: 48 hours, then about 2 weeks culture
# Procedure: Human bone marrow CD34 positive hematopoietic stem cells were obtained from Lonza K. K. The frozen cells were thawed in a medium prepared by mixing a Methocult Express medium and a 10% fetal bovine serum with 1% penicillin/streptomycin containing RPMI 1640 medium at 9:1. 5000 cells were seeded per well in a 6 well plate and cultured overnight at […] in the presence of 5% CO2. The evaluated compound was added so that the final concentration of DMSO would be 0.1% and 100 nM, and the cells were cultured for 48 hours. The cells were retrieved and washed with PBS. ⅙ of the amount of cells was seeded in a 12 well plate and cultured for about. 2 weeks at 37° C. in the presence of 5% CO2. After completion of culture, the number of colonies formed was calculated using Thiazolyl blue tetrazolium bromide (MTT).
# [2] = Liposome encapsulation test (Test Example 6); assay type: physicochemical
# Procedure: 6.48 g of hydrogenated soybean phosphatidylcholine (COATSOME NC-21E, NOF Corporation), 2.32 g of cholesterol (Sigma) and 2.06 g of distearoylphosphatidylethanolamine-methoxypolyethylene glycol 2000 (SUNBRIGHT DSPE-020CN, NOF Corporation) were dissolved in 560 mL of t-butyl alcohol heated to 65° C. The solution was frozen with dry ice/acetone bath and t-butyl alcohol was then removed by evaporation under reduced pressure to obtain a lipid mixture.
# 200 mL of 250 mM ammonium sulfate solution was added to the lipid mixture. The resulting mixture was heated to 65° C. and dispersed with a homogenizer (ULTRA-TURRAX, IKA) to obtain a crude liposome dispersion. […] The prepared amount was increased or decreased appropriately.
# 2 to 3 mg of the test compound was weighed out. 1 mL of empty liposome solution with a total lipid concentration of 50 mM was added. An aqueous 1 mol/L hydrochloric acid or 1 mol/L sodium hydroxide solution was added to adjust the pH to 5.5 to 7. […] Insolubles, when present, were removed by centrifugation for 5 minutes at 15,000×g.
# 100 μL of liposome solution was passed through an ultrafiltration filter (Amicon Ultra, 100K, 0.5 mL, Merck), and centrifuged at 4° C. at 15,000×g for 10 minutes. The concentration of the compound in the filtrate after ultrafiltration was measured by HPLC as the unencapsulated compound concentration.
# The liposome solution was diluted with a trifluoroacetic acid/water/methanol mixture (0.1/25/75) and was left standing for 10 minutes or longer at 5° C. The solution was centrifuged for 5 minutes at 15,000×g to remove insolubles. The compound concentration in the supernatant was measured by HPLC as the compound concentration in the liposome solution.
# The encapsulation ratio and the encapsulation efficiency were calculated by the following equations. Encapsulation ratio (%)=(compound concentration in liposome solution−unencapsulated compound concentration)×100/compound concentration in liposome solution Encapsulation efficiency (%)=(compound concentration in liposome solution−unencapsulated compound concentration)×100/concentration upon compound introduction
# [3] = Pharmacokinetic test in mice; assay type: in vivo; conditions: female, BALB/c, mouse, whole blood, iv, liposome formulations, 1.0 mg/kg i.v., trapezoidal method
# [4] = system: Human bone marrow CD34 positive hematopoietic stem cells; assay: Human bone marrow cell myeloid lineage differentiation induction test; assay type: cell-based; conditions: 3 nM
# Procedure: Human bone marrow CD34 positive hematopoietic stem cells were obtained from Lonza K. K. The frozen cells were thawed in a […] fetal bovine serum containing IMDM medium and suspended in a Complete hemaTox® Myeloid Medium. 1000 cells were seeded per well in a 96-well plate. The evaluated compound was added so that the final concentration of DMSO would be […] and 3 nM, and the cells were cultured for 7 days at 37° C. in the presence of 5% CO2. After completion of culture, half of the amount of cell suspension was retrieved from each well. The luminescence was measured using CellTiter-Glo® 3D Reagent (Promega, G968B) to calculate the cell survival percentage by the following equation. Cell survival percentage (%)=(measurement value of luminescence after 7 days of evaluated compound)/(measurement value of luminescence after 7 days of control group)×100
# [5] = biological target: CAMK2A (Homo sapiens (Human), UniProt Q9UQM7); assay: Kinase selectivity test (HotSpot Full Panel Kinase profiling); assay type: biochemical; conditions: 100 nM, ATP 10 μM; read-out: Residual activity (%) CAMK2A
# Procedure: (§1) Buffer: 20 mM HEPES, pH 7.5, 10 mM MgCl2, 2 mM […] (as needed), 1 mM EGTA, 0.02% Brij35, 0.02 mg/mL BSA, 0.1 mM Na3VO4, 2 mM DTT, 1% DMSO
# (§2) Compound concentration: 100 nM
# [6] = biological target: MARK4 (Homo sapiens (Human), UniProt Q96L34); assay: as above; assay type: biochemical; conditions: 100 nM, ATP 10 μM; read-out: Residual activity (%) MARK4 (MARKA [sic] in Table 32)
# Procedure: as §1, §2
# [7] = biological target: MELK (Homo sapiens (Human), UniProt Q14680); assay: as above; assay type: biochemical; conditions: 100 nM, ATP 10 μM; read-out: Residual activity (%) MELK
# Procedure: as §1, §2
# [8] = biological target: RET (Homo sapiens (Human), UniProt P07949); assay: as above; assay type: biochemical; conditions: 100 nM, ATP 10 μM; read-out: Residual activity (%) RET
# Procedure: as §1, §2
# [9] = biological target: RSK1 (Homo sapiens (Human), UniProt Q15418); assay: as above; assay type: biochemical; conditions: 100 nM, ATP 10 μM; read-out: Residual activity (%) RSK1
# Procedure: as §1, §2
# [10] = biological target: RSK2 (Homo sapiens (Human), UniProt P51812); assay: as above; assay type: biochemical; conditions: 100 nM, ATP 10 μM; read-out: Residual activity (%) RSK2
# Procedure: as §1, §2
# [11] = biological target: RSK3 (Homo sapiens (Human), UniProt Q15349); assay: as above; assay type: biochemical; conditions: 100 nM, ATP 10 μM; read-out: Residual activity (%) RSK3
# Procedure: as §1, §2
# [12] = biological target: RSK4 (Homo sapiens (Human), UniProt Q9UK32); assay: as above; assay type: biochemical; conditions: 100 nM, ATP 10 μM; read-out: Residual activity (%) RSK4
# Procedure: as §1, §2
# [13] = biological target: SIK2 (Homo sapiens (Human), UniProt Q9H0K1); assay: as above; assay type: biochemical; conditions: 100 nM, ATP 10 μM; read-out: Residual activity (%) SIK2
# Procedure: as §1, §2
# [14] = biological target: TNIK (Homo sapiens (Human), UniProt Q9UKE5); assay: as above; assay type: biochemical; conditions: 100 nM, ATP 10 μM; read-out: Residual activity (%) TNIK
# Procedure: as §1, §2
# [15] = biological target: TRKC (Homo sapiens (Human), UniProt Q16288); assay: as above; assay type: biochemical; conditions: 100 nM, ATP 10 μM; read-out: Residual activity (%) TRKC
# Procedure: as §1, §2
# Sequence of RSK1 (Q15418 whole entry): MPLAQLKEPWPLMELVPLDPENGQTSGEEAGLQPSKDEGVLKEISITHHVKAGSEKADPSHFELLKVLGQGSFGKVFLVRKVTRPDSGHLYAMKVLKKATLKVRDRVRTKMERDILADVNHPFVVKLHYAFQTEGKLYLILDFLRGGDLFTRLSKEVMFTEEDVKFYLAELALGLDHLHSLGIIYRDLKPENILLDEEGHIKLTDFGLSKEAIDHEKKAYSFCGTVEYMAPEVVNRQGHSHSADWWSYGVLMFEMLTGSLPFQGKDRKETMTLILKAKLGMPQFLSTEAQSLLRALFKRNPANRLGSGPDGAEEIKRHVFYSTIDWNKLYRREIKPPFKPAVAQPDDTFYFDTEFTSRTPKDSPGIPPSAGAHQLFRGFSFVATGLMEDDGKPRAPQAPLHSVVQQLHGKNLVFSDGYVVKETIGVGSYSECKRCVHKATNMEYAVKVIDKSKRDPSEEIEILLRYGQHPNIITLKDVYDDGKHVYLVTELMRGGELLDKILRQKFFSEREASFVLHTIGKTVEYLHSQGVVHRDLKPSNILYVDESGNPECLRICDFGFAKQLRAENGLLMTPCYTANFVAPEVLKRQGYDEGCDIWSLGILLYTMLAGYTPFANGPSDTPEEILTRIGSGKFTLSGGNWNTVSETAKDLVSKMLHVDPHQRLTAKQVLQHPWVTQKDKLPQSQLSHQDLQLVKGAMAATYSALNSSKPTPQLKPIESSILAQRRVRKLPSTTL
# Sequence of TNIK (Q9UKE5 whole entry): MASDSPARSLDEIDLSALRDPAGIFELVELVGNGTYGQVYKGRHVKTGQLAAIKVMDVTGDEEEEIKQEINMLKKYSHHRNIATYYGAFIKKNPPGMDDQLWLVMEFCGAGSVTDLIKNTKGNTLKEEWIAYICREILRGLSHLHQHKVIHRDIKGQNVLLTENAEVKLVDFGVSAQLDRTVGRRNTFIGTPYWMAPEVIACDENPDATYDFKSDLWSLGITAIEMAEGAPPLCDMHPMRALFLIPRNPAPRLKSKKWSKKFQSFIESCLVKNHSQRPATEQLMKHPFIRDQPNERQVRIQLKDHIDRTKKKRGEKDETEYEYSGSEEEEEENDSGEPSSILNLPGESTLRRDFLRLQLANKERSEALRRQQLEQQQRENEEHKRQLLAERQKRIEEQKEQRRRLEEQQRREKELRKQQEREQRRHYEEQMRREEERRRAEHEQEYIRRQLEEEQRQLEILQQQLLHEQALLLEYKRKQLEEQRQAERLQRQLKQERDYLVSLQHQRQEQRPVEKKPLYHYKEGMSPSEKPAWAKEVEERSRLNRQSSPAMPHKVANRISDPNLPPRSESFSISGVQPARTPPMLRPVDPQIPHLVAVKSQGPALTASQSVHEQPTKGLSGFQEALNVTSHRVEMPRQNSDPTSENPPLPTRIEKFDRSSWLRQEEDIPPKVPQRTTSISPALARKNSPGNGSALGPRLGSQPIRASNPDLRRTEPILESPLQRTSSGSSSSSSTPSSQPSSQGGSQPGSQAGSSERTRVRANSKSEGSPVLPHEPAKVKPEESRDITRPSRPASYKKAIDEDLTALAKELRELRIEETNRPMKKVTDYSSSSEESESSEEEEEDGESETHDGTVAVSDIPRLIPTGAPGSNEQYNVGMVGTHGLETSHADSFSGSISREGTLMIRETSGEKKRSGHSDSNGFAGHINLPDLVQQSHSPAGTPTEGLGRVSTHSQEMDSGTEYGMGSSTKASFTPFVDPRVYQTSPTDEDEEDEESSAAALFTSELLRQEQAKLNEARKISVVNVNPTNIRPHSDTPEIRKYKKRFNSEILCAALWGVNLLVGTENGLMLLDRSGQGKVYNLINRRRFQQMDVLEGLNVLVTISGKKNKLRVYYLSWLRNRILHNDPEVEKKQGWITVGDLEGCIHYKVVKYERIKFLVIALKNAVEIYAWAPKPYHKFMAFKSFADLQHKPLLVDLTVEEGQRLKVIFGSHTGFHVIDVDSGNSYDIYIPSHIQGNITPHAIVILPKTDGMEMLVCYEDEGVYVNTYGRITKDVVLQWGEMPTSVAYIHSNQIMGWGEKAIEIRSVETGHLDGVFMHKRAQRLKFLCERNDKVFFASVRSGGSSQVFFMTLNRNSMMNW
# Sequence of MARK4 (Q96L34 whole entry): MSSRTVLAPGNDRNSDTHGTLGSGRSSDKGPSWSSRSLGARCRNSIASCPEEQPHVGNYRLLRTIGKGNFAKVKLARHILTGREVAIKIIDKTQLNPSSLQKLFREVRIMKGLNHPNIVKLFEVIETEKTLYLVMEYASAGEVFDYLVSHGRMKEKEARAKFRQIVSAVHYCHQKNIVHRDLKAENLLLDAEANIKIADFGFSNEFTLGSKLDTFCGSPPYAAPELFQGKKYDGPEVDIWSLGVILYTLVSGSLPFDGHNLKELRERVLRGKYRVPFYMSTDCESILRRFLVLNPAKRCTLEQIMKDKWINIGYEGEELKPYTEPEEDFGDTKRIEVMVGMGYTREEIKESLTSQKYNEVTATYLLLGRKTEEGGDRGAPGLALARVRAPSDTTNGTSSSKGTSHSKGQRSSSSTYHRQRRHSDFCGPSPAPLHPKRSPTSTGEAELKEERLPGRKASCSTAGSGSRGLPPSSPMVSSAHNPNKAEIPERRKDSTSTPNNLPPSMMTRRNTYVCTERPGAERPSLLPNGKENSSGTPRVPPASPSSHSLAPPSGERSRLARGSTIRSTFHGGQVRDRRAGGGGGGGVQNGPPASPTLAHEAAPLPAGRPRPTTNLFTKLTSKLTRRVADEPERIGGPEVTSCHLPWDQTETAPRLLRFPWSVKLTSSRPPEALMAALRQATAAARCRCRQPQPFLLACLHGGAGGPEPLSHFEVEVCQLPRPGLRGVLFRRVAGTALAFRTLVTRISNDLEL
# Sequence of RSK3 (Q15349 whole entry): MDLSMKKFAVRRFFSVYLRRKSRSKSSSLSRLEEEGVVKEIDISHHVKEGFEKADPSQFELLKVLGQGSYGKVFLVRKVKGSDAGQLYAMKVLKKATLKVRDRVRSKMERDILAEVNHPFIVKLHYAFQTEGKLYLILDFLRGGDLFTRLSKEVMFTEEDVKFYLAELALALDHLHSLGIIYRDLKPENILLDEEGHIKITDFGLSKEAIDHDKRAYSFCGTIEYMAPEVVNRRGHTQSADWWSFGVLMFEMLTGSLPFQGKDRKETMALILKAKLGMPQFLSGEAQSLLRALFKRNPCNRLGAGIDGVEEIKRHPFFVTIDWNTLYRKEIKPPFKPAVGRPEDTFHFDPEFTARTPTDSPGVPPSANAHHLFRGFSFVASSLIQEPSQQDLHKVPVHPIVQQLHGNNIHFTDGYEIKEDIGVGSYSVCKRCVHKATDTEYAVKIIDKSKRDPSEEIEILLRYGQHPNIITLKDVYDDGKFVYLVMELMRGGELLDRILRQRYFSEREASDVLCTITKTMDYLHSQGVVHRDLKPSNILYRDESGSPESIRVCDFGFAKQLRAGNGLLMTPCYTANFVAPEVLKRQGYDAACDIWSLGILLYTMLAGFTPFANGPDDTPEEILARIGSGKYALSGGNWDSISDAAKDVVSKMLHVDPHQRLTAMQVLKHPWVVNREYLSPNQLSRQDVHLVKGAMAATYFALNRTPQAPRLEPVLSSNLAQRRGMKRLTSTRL
# Sequence of RET (P07949 29-1114): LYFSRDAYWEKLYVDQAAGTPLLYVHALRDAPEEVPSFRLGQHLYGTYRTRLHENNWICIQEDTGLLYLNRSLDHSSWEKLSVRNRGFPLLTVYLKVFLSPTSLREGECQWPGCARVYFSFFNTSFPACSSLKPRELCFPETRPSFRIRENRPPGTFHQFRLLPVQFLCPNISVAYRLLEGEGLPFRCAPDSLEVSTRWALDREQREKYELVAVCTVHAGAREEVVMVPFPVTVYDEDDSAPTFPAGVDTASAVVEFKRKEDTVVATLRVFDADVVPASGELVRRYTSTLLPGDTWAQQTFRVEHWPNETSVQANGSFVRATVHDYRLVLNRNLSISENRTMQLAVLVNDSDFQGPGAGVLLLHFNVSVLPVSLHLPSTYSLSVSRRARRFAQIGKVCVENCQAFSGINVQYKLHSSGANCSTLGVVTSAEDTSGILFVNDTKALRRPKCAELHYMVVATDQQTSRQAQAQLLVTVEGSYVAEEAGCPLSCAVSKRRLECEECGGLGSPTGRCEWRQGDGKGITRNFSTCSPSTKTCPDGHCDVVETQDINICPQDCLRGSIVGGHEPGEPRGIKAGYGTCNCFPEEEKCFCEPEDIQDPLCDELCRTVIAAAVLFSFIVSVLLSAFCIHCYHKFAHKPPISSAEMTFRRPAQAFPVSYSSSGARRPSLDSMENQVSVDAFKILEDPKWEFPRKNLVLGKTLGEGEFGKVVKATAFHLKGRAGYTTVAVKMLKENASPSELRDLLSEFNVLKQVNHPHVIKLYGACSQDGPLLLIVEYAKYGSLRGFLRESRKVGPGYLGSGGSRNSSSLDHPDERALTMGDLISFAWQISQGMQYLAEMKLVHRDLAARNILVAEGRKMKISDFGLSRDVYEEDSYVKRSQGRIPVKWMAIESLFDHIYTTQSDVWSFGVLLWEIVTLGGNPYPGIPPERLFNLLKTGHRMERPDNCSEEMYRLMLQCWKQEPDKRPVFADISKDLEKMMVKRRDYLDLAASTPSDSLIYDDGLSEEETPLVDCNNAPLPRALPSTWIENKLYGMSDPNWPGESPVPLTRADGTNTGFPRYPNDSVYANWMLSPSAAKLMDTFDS
SMILES,effect on human bone marrow cell colony formation (in words) [1],"Colony count (/well), mean [1]",Compound concentration in liposome solution ([2]; concentration upon compound introduction 2 mg/mL) [mg/mL],AUC(0-t) [3] [µg·h/mL],effect on myeloid cells induced to differentiate from human bone marrow cells (in words) [4],remaining activity at 0.1 µM [5] [%],remaining activity at 0.1 µM [6] [%],remaining activity at 0.1 µM [7] [%],remaining activity at 0.1 µM [8] [%],remaining activity at 0.1 µM [9] [%],remaining activity at 0.1 µM [10] [%],remaining activity at 0.1 µM [11] [%],remaining activity at 0.1 µM [12] [%],remaining activity at 0.1 µM [13] [%],remaining activity at 0.1 µM [14] [%],remaining activity at 0.1 µM [15] [%],Encapsulation efficiency [2] [%],Encapsulation efficiency ([2]; concentration upon compound introduction 3 mg/mL) [%],liquid viscosity during the liposome encapsulation procedure ([2]; pH adjusted by adding 1 mol/L hydrochloric acid)
"COc1cccc(OCCCN)c1-c1cc(Nc2cnc(C#N)cn2)n[nH]1 [Prexasertib, reference compound]",exhibits an effect of suppressing human bone marrow cell colony formation,19 /well,2.16,236,exhibited an effect of suppressing myeloid cells induced to differentiate from human bone marrow cells,2.52,10.2,11.4,7.12,2.23,0.98,1.69,4.78,2.62,7.76,12.7,–,–,–
"COc1ccnc(OCCCN)c1-c1cc(Nc2cnc(C#N)cn2)n[nH]1 [Example 1, 5-({5-[2-(3-aminopropoxy)-4-methoxypyridin-3-yl]-1H-pyrazol-3-yl}amino)pyrazine-2-carbonitrile]",does not exhibit an effect of suppressing human bone marrow colony formation,34 /well,–,447,does not exhibit an effect of suppressing myeloid cells induced to differentiate from human bone marrow cells,13.9,24.1,17.2,19,8.51,4.32,3.91,9.05,14.1,17.8,17.4,≥ 80,87.4,increase in viscosity was not found
